From patent publication US4305872A, “Polypeptide derivatives” (priority 1979, dated 1981)

Columns and labels:
Serum TSH level = test: 6 Point Parallel Line Assay, serum TSH level after inhibitor then TRH; format: in vivo; conditions: no inhibitor (saline injected)
Method: (§1) 6 Point Parallel Line Assay Design:
(§2) 3 sample, 3 standard samples
(§3) Responses expressed in (Ng/ml)
(§4) Animals challenged with peptide derivative dissolved in 0.85% NaCl.
(§5) Total Injection Volume: 0.25 ml
(§6) Anatomical Site of Injection: Jugular vein
(§7) Samples obtained by subjecting animal to ether anesthesia, and sacrificing animal.
(§8) Each animal was injected via jugular vein 0.25 ml of peptide derivative: to insure sample was injected into vein, the syringe plunger was gently retracted, if blood could be withdrawn, then the sample was injected. Following injection, the syringe was rinsed with blood and injected. 1/2-hour following injection of the peptide derivative, using the same procedure, a TRH dose-response curve was made using the same injection technique.
(§9) 0 time--injection of TRH derivative (80 ugm)
(§10) 1/2 hr.--injection of TRH (4, 40, and 80 ugm)
(§11) 1 hrs.--blood sample collected

[1] = tested on: TRH-Induced Release of Radioactive (125I) Iodide from the Thyroid; test: McKenzie Bioassay for TRH-Induced Release of Radioactive (125I) Iodide from the Thyroid; format: in vivo, Long-Evans male rats; conditions: worked Example; for (I-125) cpm/200 ul blood at THR: tail vein; for Δ cpm: net of saline control
Method: 16 Long-Evans male rats were maintained on an iodine deficient diet for 1 week. Each rat was then injected intraperitoneally (i.p.) with 20 μCi of radioactive (Na^125 I). Six hours before injection of the material to be tested, the animals were given 0.03% propylthioluracil (PTU) in their drinking water. This prevents the re-uptake of released ^125 I (iodoproteins such as mono- and diodo-tyrosines, T3 or T4) once they are released from the thyroid under the influence of TRH or TRH analogue. 24 hrs. after administration of the radioactive iodine (0.2 ml) 200 μl of blood was withdrawn from the tail vein of each rat, transferred quantitatively into a 12×75 mm test tube containing 1 ml of 0.9% saline and the ^125 I content counted by use of a Beckmann γ-ray spectrometer. One ml of TRH or TRH analogue dissolved in 0.9% NaCl (physiologic saline) was injected into the tail vein of each of four rats per dose considered (e.g. 0.4 μgm, 40 μgm, 80 μgm). 1 ml of 0.9% NaCl (physiologic saline) was injected also to each of four rats to serve as a control for stress-related influence (trauma from blood collecting procedure and anesthesia) on release of ^125 I from the thyroid gland. Once the saline control or designated dose of TRH or TRH analogue has been injected, blood samples (0.2 ml) are collected from the tail vein of each rat at 30 minutes, 1 hr, 2 hrs, and 3 hrs. and the ^125 I content evaluated as described above. Upon completion of the experiment, animals are kept for a 24 hr time period to observe any adverse toxicological effects. If they maintain their usual behavior (vital signs), it is assumed the compounds tested cause no overt physiological effects.
An increase in I-125 content above the basal level, as exemplified by the saline control, indicates a TRH induced release of TSH (thyrotropin stimulating hormone) which in turn causes release of I-125 from the thyroid. This type of response means the […] hormone physiologic mechanism (hypothalamo-pituitary-thyroid axis) is working properly, and the animals are suitable for testing. […] For each dose level considered, the radio-activity content of I-125 (cpm) per 200 μl of blood is evaluated at each time period and subtracted from the saline control radioactivity (I-125) content to obtain the Δ cpm released from thyroid. The net cpm released is therefore evaluated, rather than the absolute radio-activity for each time period and dose level.
To evaluate the effect of TRH analogues (TRH-CMK or TRH-DMK) on the TRH-TSH release of I-125 from the thyroid, each animal of a test group (4 animals) was injected with 1 ml of a given dose of the TRH analogue into the tail vein. […] Blood samples (0.2 ml) were then collected at various times (e.g. 1/2, 1 hr, 2 hrs, etc.) and evaluated for their I-125 content. […]

Serum Prolactin Level = test: 6 Point Parallel Line Assay, serum prolactin level after inhibitor then TRH; format: in vivo; conditions: no inhibitor (saline injected)
Method: as §1, §2, §3, §4, §5, §6, §7, §8, §9, §10, §11

[2] = tested on: guinea pig ileum (opiate receptor site); test: Guinea pig ileum (GPI) assay for enkephalin activity, electrically stimulated contractions; conditions: specificity controls; FIGS. 6-9

Molecule	Serum TSH level (Serum TSH level; FIRST EXPERIMENT, TRH 4 μg)	Serum TSH level (Serum TSH level; FIRST EXPERIMENT, TRH 40 μg)	Serum TSH level (Serum TSH level; FIRST EXPERIMENT, TRH 80 μg)	Serum TSH level (Serum TSH level; SECOND EXPERIMENT, TRH 4 μg)	Serum TSH level (Serum TSH level; SECOND EXPERIMENT, TRH 40 μg)	Serum TSH level (Serum TSH level; SECOND EXPERIMENT, TRH 80 μg)	(I-125) cpm/200 ul blood at THR ([1]; 0.4 μgm TRH)	Δ cpm ([1]; 0.4 μgm TRH)	(I-125) cpm/200 ul blood at THR ([1]; 4 μgm TRH)	Δ cpm ([1]; 4 μgm TRH)	Serum Prolactin Level (Serum Prolactin Level; FIRST EXPERIMENT, TRH 4 μg)	Serum Prolactin Level (Serum Prolactin Level; FIRST EXPERIMENT, TRH 40 μg)	Serum Prolactin Level (Serum Prolactin Level; FIRST EXPERIMENT, TRH 80 μg)	Serum Prolactin Level (Serum Prolactin Level; SECOND EXPERIMENT, TRH 4 μg)	Serum Prolactin Level (Serum Prolactin Level; SECOND EXPERIMENT, TRH 40 μg)	Serum Prolactin Level (Serum Prolactin Level; SECOND EXPERIMENT, TRH 80 μg)	whether it effects a response on the GPI (neither = no response) [2]
NC(=O)[C@@H]1CCCN1C(=O)[C@H](Cc1c[nH]cn1)NC(=O)[C@@H]1CCC(=O)N1 [TRH, L-pyroglutamyl-L-histidyl-L-prolinamide]	312 ng/mL	412 ng/mL	1139 ng/mL	167 ng/mL	612 ng/mL	839 ng/mL	261 cpm/200 ul	+141 cpm	358 cpm/200 ul	+238 cpm	61 ng/mL	76 ng/mL	216 ng/mL	46 ng/mL	150 ng/mL	181 ng/mL	
N-tosyl-phenylalanine chloromethyl ketone																	neither
